# Experiments:
# Experiment in all cases: relative viability (nuclei count vs DMSO), 5 days (fraction); higher = more cells survive
# [1] = compound: CC[C@H](Nc1ncnc2[nH]cnc12)c1nc2cccc(F)c2c(=O)n1-c1ccccc1 [Idelalisib] + Cc1cc(Nc2cc(N3CCN(C)CC3)nc(Sc3ccc(NC(=O)C4CC4)cc3)n2)n[nH]1 [Tozasertib] (partner 0.1 µM)
# How it was run: (§1)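 Five library-drug doses in √10 steps were combined with a fixed anchor-drug dose, or a single drug was given alone, by pin tool to lung cancer cell lines in 1536-well plates the day after seeding. Nuclei were stained and counted after 5 days. Relative viability is the nuclei count in treated wells over that in vehicle wells, taken as the median of duplicate plates.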
# [2] = compound: CC[C@H](Nc1ncnc2[nH]cnc12)c1nc2cccc(F)c2c(=O)n1-c1ccccc1 [Idelalisib] + CC(=O)c1c(C)c2cnc(Nc3ccc(N4CCNCC4)cn3)nc2n(C2CCCC2)c1=O [Palbociclib] (partner 0.5 µM)
# How it was run: as §1
# [3] = compound: Nc1nc2[nH]cc(CCc3ccc(C(=O)N[C@@H](CCC(=O)O)C(=O)O)cc3)c2c(=O)[nH]1 [Pemetrexed] + O=C(CCCCCCC(=O)Nc1ccccc1)NO [Vorinostat] (partner 1 µM)
# How it was run: as §1
# [4] = compound: Nc1nc2[nH]cc(CCc3ccc(C(=O)N[C@@H](CCC(=O)O)C(=O)O)cc3)c2c(=O)[nH]1 [Pemetrexed] + NC(=O)Nc1cc(-c2cccc(F)c2)sc1C(=O)N[C@H]1CCCNC1 [AZD7762] (partner 0.2 µM)
# How it was run: as §1
Cell Line,relative viability ([1]; first compound 0.04 µM),relative viability ([1]; first compound 0.1265 µM),relative viability ([1]; first compound 0.4 µM),relative viability ([1]; first compound 1.265 µM),relative viability ([1]; first compound 4 µM),relative viability ([2]; first compound 0.04 µM),relative viability ([2]; first compound 0.1265 µM),relative viability ([2]; first compound 0.4 µM),relative viability ([2]; first compound 1.265 µM),relative viability ([2]; first compound 4 µM),relative viability ([3]; first compound 0.002 µM),relative viability ([3]; first compound 0.006325 µM),relative viability ([3]; first compound 0.02 µM),relative viability ([3]; first compound 0.06325 µM),relative viability ([3]; first compound 0.2 µM),relative viability ([4]; first compound 0.002 µM),relative viability ([4]; first compound 0.006325 µM),relative viability ([4]; first compound 0.02 µM),relative viability ([4]; first compound 0.06325 µM),relative viability ([4]; first compound 0.2 µM)
NCI-H358,0.106,0.0937,0.113,0.088,0.116,0.178,0.138,0.137,0.153,0.153,0.616,0.655,0.414,0.167,0.122,0.55,0.321,0.539,0.338,0.266
NCI-H2126,0.838,0.905,0.765,0.813,0.626,0.364,0.369,0.366,0.327,0.358,0.638,0.719,0.777,0.798,0.688,0.904,0.954,1.06,1.01,0.879
ChaGo-K-1,0.244,0.227,0.197,0.212,0.187,0.972,0.928,0.987,0.904,0.901,0.721,0.735,0.751,0.293,0.233,0.902,0.803,0.834,0.27,0.238
NCI-H1437,0.333,0.43,0.411,0.384,0.397,0.334,0.413,0.318,0.361,0.325,0.853,0.813,0.806,0.596,0.364,1.03,1.1,1.06,0.323,0.231
NCI-H838,0.268,0.288,0.282,0.258,0.257,0.207,0.262,0.186,0.213,0.171,0.72,0.727,0.781,0.661,0.308,0.934,0.862,0.757,0.635,0.579
NCI-H1755,0.541,0.616,0.483,0.488,0.489,0.462,0.422,0.444,0.437,0.465,0.716,0.813,0.776,0.751,0.624,0.42,0.453,0.483,0.393,0.295
NCI-H1915,0.55,0.406,0.374,0.407,0.402,0.603,0.482,0.5,0.577,0.495,0.419,0.484,0.526,0.463,0.549,0.6,0.638,0.751,0.599,0.652
NCI-H2347,0.591,0.517,0.408,0.443,0.441,0.48,0.453,0.445,0.42,0.286,0.49,0.487,0.609,0.468,0.436,0.61,0.831,0.914,0.517,0.428
HARA,0.0983,0.113,0.121,0.0975,0.101,0.334,0.223,0.261,0.238,0.225,0.517,0.611,0.512,0.595,0.231,0.272,0.302,0.582,0.259,0.128
NCI-H2085,0.915,0.779,0.8,0.641,0.692,0.466,0.445,0.483,0.422,0.464,0.763,0.775,0.897,0.817,0.806,0.921,0.936,1.04,0.959,0.916
NCI-H650,0.748,0.767,0.635,0.803,0.69,0.327,0.314,0.309,0.312,0.296,0.378,0.552,,0.427,0.453,0.966,0.939,,0.83,0.931
NCI-H727,0.669,0.533,0.713,0.652,0.559,0.7,0.566,0.648,0.786,0.619,1.18,1.12,1.26,1.16,1.06,0.773,0.573,0.763,0.523,0.653
NCI-H1993,0.628,0.54,0.519,0.583,0.574,0.642,0.743,0.49,0.523,0.491,0.832,0.863,0.701,0.67,0.612,0.546,0.825,0.779,0.563,0.481
EMC-BAC-2,0.313,0.277,0.296,0.276,0.281,0.546,0.502,0.489,0.522,0.482,0.397,0.734,0.539,0.402,0.256,1.1,0.944,1.14,0.948,0.69
NCI-H2087,0.249,0.272,0.212,0.216,0.235,0.216,0.173,0.15,0.223,0.169,0.662,0.751,1.06,0.591,0.757,1.2,1.22,1.44,1.3,0.799
NCI-H441,0.725,0.685,0.728,0.536,0.591,0.231,0.155,,0.23,0.182,0.693,0.788,0.763,0.695,0.262,1.12,1.1,1.11,1.03,0.291
LXF-289,0.259,0.189,0.195,0.14,0.235,0.592,0.667,0.601,0.687,0.627,0.625,0.758,0.795,0.74,0.718,1.06,1.02,1.14,1.09,1.02
PC-3 [JPC-3],0.966,0.913,0.853,0.901,0.715,0.557,0.525,0.584,0.489,0.539,0.628,1.15,0.837,0.922,0.782,0.448,0.968,1,0.808,0.861
HCC-366,0.121,0.126,0.107,0.112,0.068,0.35,0.384,0.39,0.393,0.353,0.208,0.341,0.393,0.386,0.269,0.228,0.239,0.308,0.254,0.158
NCI-H522,0.578,0.569,0.508,0.571,0.489,0.958,0.793,0.903,0.947,0.796,0.801,0.871,1.09,0.797,0.927,0.999,0.806,1.05,0.91,0.805
NCI-H1651,0.673,0.623,0.615,0.593,0.605,0.518,0.524,0.489,0.522,0.442,0.553,0.562,0.642,0.44,0.548,0.412,0.452,0.51,0.44,0.455
NCI-H1648,0.489,0.373,0.412,0.425,0.217,0.239,0.291,0.298,0.262,0.315,0.397,0.138,0.399,0.465,0.551,0.671,0.703,0.831,0.686,0.623
NCI-H1355,0.534,0.611,0.442,0.488,0.386,0.415,0.407,0.333,0.364,0.312,0.526,0.603,0.667,0.599,0.62,0.732,0.838,0.771,0.794,0.808
LC-2-ad,0.44,0.455,0.374,0.397,0.457,0.454,0.518,0.513,0.503,0.49,0.657,0.671,0.663,0.319,0.27,0.726,0.816,0.43,0.276,0.233
NCI-H1944,0.272,0.229,0.219,0.224,0.211,0.36,0.315,0.297,0.292,0.283,0.43,0.487,0.565,0.592,0.531,0.48,0.432,0.582,0.506,0.531
HCC-827,0.457,0.447,0.389,0.453,0.398,0.507,0.471,0.426,0.349,0.378,0.764,0.912,0.959,0.515,0.426,0.192,0.276,0.26,0.183,0.164

# — the supplement of paper PMC10307832
